Results as given in paper PMC8657773, “Development of a PROTAC-Based Targeting Strategy Provides a Mechanistically Unique Mode of Anti-Cytomegalovirus Activity” (International Journal of Molecular Sciences, 2021).
Where “and” joins values, the source holds several entries; their conditions need not be identical. Equal values may be shown once. Read-outs that look alike come from different tables or passages of the source.

Key:
[1] = tested on: SARS-CoV-2 d6-YFP; parameters: method as in PMID 34578109; conditions: human Caco-2 cells, previously demonstrated; ref [41]; cited from earlier work
[2] = tested on: HCMV AD169-GFP; parameters: method as in PMID 30452929, PMID 25624324; conditions: anti-HCMV, preceding determination; ref [22],[26]; cited from earlier work
[3] = tested on: HCMV AD169-GFP; assay: microbe, parasite or virus in culture; type: cell-based, Human cytomegalovirus
[4] = tested on: HFFs; assay: in vitro; type: cell-based; conditions: human
Procedure: (§1) Drug induced cytotoxicity in HFF and other cell types was measured as a reduction of cell viability determined by Neutral Red uptake assay (NRA), as described previously. Briefly, compound treated cells were incubated with a final concentration of 40 μg/mL Neutral Red (Sigma Aldrich, St. Louis, MO, USA) for 1 to 4 h, depending on the cell type. The amount of incorporated Neutral Red was released from the cells by incubation with destaining solution (50% ethanol, 49% H2O, 1% acetic acid), and subsequently quantitated in a microplate reader by fluorescence measurement using 560/630 nm for excitation/emission, respectively. For determination of lactate dehydrogenase release into the cell culture supernatant, the CytoTox 96® Non-Radioactive Cytotoxicity Assay (Promega, Madison, WI, USA) was used according to the manufacturer’s protocol. Values were normalized to maximal release of LDH by measuring lysates of solvent-treated control cells. Cell viability was defined as the absence of cytotoxicity.

[5] = in vitro; type: cell-based
Procedure: as §1

[6] = tested on: MCMV Smith-GFP; assay: microbe, parasite or virus in culture; type: cell-based, murine CMV; conditions: for EC50: Human betaherpesvirus 5, in Mus musculus, 120 h, MCMV Smith-GFP, 5 d p.i.
[7] = tested on: HAdV-2; assay: HAdV-2 plaque formation assay in HFFs; type: cell-based, human adenovirus type 2; conditions: for EC50: HAdV-2, HFF, 10 d p.i.; for impact on HAdV-2 plaque formation: HFFs, at concentrations (0.03 µM) that produced anti-HCMV activity
[8] = tested on: SARS-CoV-2 d6-YFP; assay: microbe, parasite or virus in culture; type: cell-based
[9] = tested on: VZV Oka-GFP; type: cell-based, varicella zoster virus; conditions: HFF, 1× TCID25^7d, 6 d p.i.
[10] = tested on: MEFs; assay: in vitro; type: cell-based; conditions: mouse, 5 d
Procedure: as §1

[11] = Neutral Red uptake assay, uninfected MRC-5 cells; type: cell-based; conditions: human
Procedure: as §1

[12] = tested on: HCMV Merlin; assay: HCMV-specific qPCR replication assay in TEV-1 trophoblast cells; type: cell-based, Human cytomegalovirus
[13] = target: T1, CDK7 (Homo sapiens, UniProt P50613); assay: Western blot of CDK degradation in HFFs; type: cell-based; conditions: uninfected HFFs
T1 construct: endogenous in cells; host or cells: primary human foreskin fibroblasts (HFFs), mock- or HCMV AD169-infected
T1 sequence (P50613 whole entry): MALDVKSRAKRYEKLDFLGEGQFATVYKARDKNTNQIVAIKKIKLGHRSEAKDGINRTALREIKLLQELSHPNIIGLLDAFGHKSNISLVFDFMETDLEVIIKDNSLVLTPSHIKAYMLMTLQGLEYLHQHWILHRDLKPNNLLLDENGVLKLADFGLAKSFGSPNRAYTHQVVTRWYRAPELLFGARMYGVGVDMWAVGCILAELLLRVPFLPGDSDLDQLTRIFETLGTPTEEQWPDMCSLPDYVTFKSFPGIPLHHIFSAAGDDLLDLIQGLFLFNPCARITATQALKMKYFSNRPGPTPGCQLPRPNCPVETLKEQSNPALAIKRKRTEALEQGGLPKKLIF
Procedure: (§2) Western blot analyses of infected and mock-infected HFFs were performed as previously described. Antibodies specific for CDK9 (sc-484, Santa Cruz Biotechnology, Dallas, TX, USA), mAb-CDK1 (sc-54, Santa Cruz Biotechnology), pAb CDK2 (Sc-163, Santa Cruz Biotechnology), pAb-CDK7 (sc-723, Santa Cruz Biotechnology), and mAb β-actin (A5441, Sigma Aldrich, St. Louis, MO, USA) were used with an appropriate secondary antibody to detect the respective proteins.

[14] = target: T2, CDK9 (Homo sapiens, UniProt P50750); assay: Western blot of CDK degradation in HFFs; type: cell-based; conditions: uninfected HFFs
T2 construct: endogenous in cells; host or cells: primary human foreskin fibroblasts (HFFs), mock- or HCMV AD169-infected
T2 sequence (P50750 whole entry): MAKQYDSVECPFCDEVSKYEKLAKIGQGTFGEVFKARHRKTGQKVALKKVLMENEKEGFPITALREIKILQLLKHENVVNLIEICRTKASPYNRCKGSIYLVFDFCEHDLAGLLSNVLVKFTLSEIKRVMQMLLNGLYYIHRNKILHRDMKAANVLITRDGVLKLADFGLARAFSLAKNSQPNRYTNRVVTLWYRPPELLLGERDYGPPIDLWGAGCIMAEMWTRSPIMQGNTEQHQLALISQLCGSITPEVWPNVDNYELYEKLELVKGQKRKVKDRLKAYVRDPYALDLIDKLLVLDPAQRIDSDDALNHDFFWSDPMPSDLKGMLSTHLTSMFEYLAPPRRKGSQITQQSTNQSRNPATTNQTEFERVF
Procedure: as §2

[15] = target: T3, CDK1 (Homo sapiens, UniProt P06493); assay: Western blot of CDK degradation in HFFs; type: cell-based; conditions: uninfected HFFs, up to 100 nM, up to 24 h
T3 construct: endogenous in cells; host or cells: primary human foreskin fibroblasts (HFFs), mock- or HCMV AD169-infected
T3 sequence (P06493 whole entry): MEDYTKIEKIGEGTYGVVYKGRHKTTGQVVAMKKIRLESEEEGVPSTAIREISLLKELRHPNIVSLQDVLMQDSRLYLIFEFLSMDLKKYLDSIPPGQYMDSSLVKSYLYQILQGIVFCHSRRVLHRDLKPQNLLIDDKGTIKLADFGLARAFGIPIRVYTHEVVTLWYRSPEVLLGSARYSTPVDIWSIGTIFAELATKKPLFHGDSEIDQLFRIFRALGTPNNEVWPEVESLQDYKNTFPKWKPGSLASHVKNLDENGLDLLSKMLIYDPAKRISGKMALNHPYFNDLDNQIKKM
Procedure: as §2

[16] = target: T4, CDK2 (Homo sapiens, UniProt P24941); assay: Western blot of CDK degradation in HFFs; type: cell-based; conditions: uninfected HFFs
T4 construct: endogenous in cells; host or cells: primary human foreskin fibroblasts (HFFs), mock- or HCMV AD169-infected
Procedure: as §2

[17] = tested on: ZIKV PRVABC59; assay: ZIKV qPCR replication assay in Vero cells; type: cell-based, Zika virus; conditions: for EC50: ZIKV PRVABC59, Vero
[18] = tested on: TEV-1 trophoblast cells; assay: Transwell migration assay, HCMV AD169-infected TEV-1 trophoblasts; type: cell-based, human; conditions: HCMV AD169-infected TEV-1 (MOI 2)
[19] = tested on: HCMV Merlin; assay: HCMV-specific qPCR replication assay in MRC-5 cells; type: cell-based, Human cytomegalovirus
[20] = Cell viability of Vero cells; type: cell-based; conditions: African green monkey
Procedure: as §1

[21] = target: T1, CDK7; assay: Western blot of CDK levels in HCMV-infected HFFs; type: cell-based; conditions: HCMV AD169-infected HFFs (MOI 2), THAL-SNS032 treatment, 1 and 3 d p.i.
Procedure: as §2

[22] = target: T2, CDK9; assay: Western blot of CDK levels in HCMV-infected HFFs; type: cell-based; conditions: HCMV AD169-infected HFFs (MOI 2)
Procedure: as §2

[23] = target: T3, CDK1; assay: Western blot of CDK levels in HCMV-infected HFFs; type: cell-based; conditions: HCMV AD169-infected HFFs (MOI 2), THAL-SNS032 treatment, 1 and 3 d p.i.
Procedure: as §2

[24] = target: T4, CDK2; assay: Western blot of CDK levels in HCMV-infected HFFs; type: cell-based; conditions: HCMV AD169-infected HFFs (MOI 2), THAL-SNS032 treatment, 1 and 3 d p.i.
Procedure: as §2

[25] = MEF, 1× TCID25^5d, Table 1 summary
[26] = Human betaherpesvirus 5, AD169, 168 h
[27] = Human betaherpesvirus 5, AD169, HFF-1, 168 h
[28] = Severe acute respiratory syndrome coronavirus 2, Caco-2
[29] = Severe acute respiratory syndrome coronavirus 2, Caco-2, 30 h
[30] = washout after 24 h treatment, initial levels reconstituted after 24 h

## CC(C)c1cnn2c(NCc3ccccc3-n3cccn3)nc(OC3CCCNC3)nc12 (stereo not shown) [LDC4297]
[1]
  impairment of SARS-CoV-2 replication: inactive
[2]
  EC50: 30 nM

## O=C1Cc2c([nH]c3ccc([N+](=O)[O-])cc23)-c2ccccc2N1 [R25/alsterpaullone, alsterpaullone]
[1]
  impairment of SARS-CoV-2 replication: effective

## Cc1c(Br)c(Br)c2c3c1nc(N1CCNCC1)n3CCC2 [SEL120]
[3]; Human betaherpesvirus 5, AD169
  EC50: 120 ± 70 nM

## CC(C)(C)c1cnc(CSc2cnc(NC(=O)C3CCNCC3)s2)o1 [SNS032]
[4]
  CC50: 220 ± 40 nM
[5]; human
  CC50 at 48 h: 59500 ± 7000 nM
[5]; human, CC50
  CC50: 240 ± 22 nM
[5]; mouse, CC50
  CC50: 1030 ± 50 nM
  CC50 at 5 d: ~1000 nM
[6]; [25]
  EC50: 290 ± 50 nM
[6]; MCMV/MEF, Figure 6 experiment
  SI: 3.5
[6]; MCMV/MEF, Table 1 summary
  SI: 3.5
[3]; HCMV AD169-GFP/HFF, Table 1 summary
  SI: 2.0
[3]; HCMV AD169-GFP/HFF, representative experiment (Figure 3)
  SI: 2.3
[3]; [26]
  EC50: 105 ± 4 nM
[3]; [27]
  EC50: 110 ± 20 nM
[7]
  EC50: inactive
  impact on HAdV-2 plaque formation: none of the drugs produced a measurable impact
[1]
  impairment of SARS-CoV-2 replication: effective
[8]
  EC50: 180 ± 30 nM
[8]; Caco-2, conventional treatment
  SI: 340
[8]; Caco-2, only pretreatment
  SI: 397
[8]; [28]
  EC50: 150 ± 30 nM
[8]; [29]
  EC50: 175 ± 250 nM
[9]
  EC50: inactive

## CC(C)(C)c1cnc(CSc2cnc(NC(=O)C3CCN(CC(=O)NCCOCCOCCOCCNc4cccc5c4C(=O)N(C4CCC(=O)NC4=O)C5=O)CC3)s2)o1 (stereo not shown) [THAL-SNS032]
[10]
  CC50: 960 ± 120 nM
[5]; human
  CC50: 4030 nM
  CC50 at 48 h: 64900 ± 16200 nM
[5]; human, CC50
  CC50: 125 ± 14 nM
[5]; mouse, CC50
  CC50: 1000 ± 220 nM
  CC50 at 5 d: ~1000 nM
[11]
  CC50: 4650 nM
[6]
  EC50 Ratio SNS032/ THAL-SNS032: 1.4
  SI: 4.7
[6]; [25]
  EC50: 210 ± 90 nM
[6]; MEFs, Figure 6 experiment
  EC50: 220 ± 80 nM
[12]
  SI: 53.7 and 54
[12]; Human betaherpesvirus 5, 168 h, HCMV Merlin, TEV-1, 7 d p.i.
  EC50: 75 nM
[3]
  EC50 Ratio SNS032/ THAL-SNS032: 3.7
  SI: 5.7
[3]; [26]
  EC50: 25 ± 1 nM
[3]; [27]
  EC50: 30 ± 10 nM
[3]; Human betaherpesvirus 5, AD169, read-out: EC50 values (range) for HCMV
  EC50: 30 to 3070 nM
[13]; 100 nM, 6 to 24 h
  CDK7 protein level (larger variety): decline in protein levels
[13]; [30]
  time reduced CDK7 level was maintained after washout: 6 h
[14]; 10 nM, beginning with 6 h
  CDK9 protein level: markedly reduced
[14]; 100 nM, after 40 min
  CDK9 protein level: decreased protein levels
[14]; [30]
  time reduced CDK9 level was maintained after washout: 6 h
[15]
  CDK1 protein level: apparently not affected
[16]; 100 nM, 6 to 24 h
  CDK2 protein level: decline in protein levels
[16]; [30]
  time reduced CDK2 level was maintained after washout: 6 h
[17]; Vero cells, concentrations up to 10 µM
  effect on ZIKV replication: did not affect virus replication
[17]; MOI 0.02, 1 d p.i.
  EC50: inactive
[17]; MOI 0.02, 2 d p.i.
  EC50: inactive
[17]; MOI 0.02, 3 d p.i.
  EC50: inactive
[17]; MOI 0.02, 4 d p.i.
  EC50: inactive
[7]
  EC50: inactive
  impact on HAdV-2 plaque formation: none of the drugs produced a measurable impact
[18]; 0.5 µM, 21 h migration
  trophoblast migration: almost completely abolished trophoblast migration
[19]; Human betaherpesvirus 5, MRC5, 96 h, HCMV Merlin, MRC-5, MOI 0.02, 4 d p.i., read-out: EC50
  EC50: 370 nM
[19]; Human betaherpesvirus 5, MRC5, 96 h, HCMV Merlin, MRC-5, MOI 0.2, 4 d p.i., read-out: EC50
  EC50: 1770 nM
[19]; Human betaherpesvirus 5, MRC5, 168 h, HCMV Merlin, MRC-5, MOI 0.002, 7 d p.i., read-out: EC50
  EC50: 570 nM
[19]; Human betaherpesvirus 5, MRC5, 168 h, HCMV Merlin, MRC-5, MOI 0.02, 7 d p.i., read-out: EC50
  EC50: 400 nM
[19]; Human betaherpesvirus 5, MRC5, 168 h, HCMV Merlin, MRC-5, MOI 0.2, 7 d p.i., read-out: EC50
  EC50: 3070 nM
[19]; Human betaherpesvirus 5, MRC5, 240 h, HCMV Merlin, MRC-5, MOI 0.002, 10 d p.i., read-out: EC50
  EC50: 940 nM
[19]; Human betaherpesvirus 5, MRC5, MRC-5, lower MOIs of 0.02 and 0.002, 4 to 10 days, read-out: EC50 values (range)
  EC50: 340 to 940 nM
[20]
  CC50 at 4 d: 43900 nM
[8]
  EC50: 150 ± 20 nM
  EC50 Ratio SNS032/ THAL-SNS032: 1.6 and 1.7
  SI: 592
[8]; [28]
  EC50: 146 ± 22 nM
[8]; [29]
  EC50: 110 ± 20 nM
[9]
  EC50: inactive
[21]
  CDK7 protein level: markedly reduced at 1 d p.i. and completely lost at 3 d p.i.
[22]; 1 nM, 1 and 3 d p.i.
  CDK9 protein level: partial reduction
[22]; 10 nM, 3 h p.i.
  CDK9 protein level: sufficient to deplete CDK9 levels
[23]
  CDK1 protein level: markedly reduced at 1 d p.i. and completely lost at 3 d p.i.
[24]
  CDK2 protein level: markedly reduced at 1 d p.i. and completely lost at 3 d p.i.

## Nc1nc(O)c2ncn(COC(CO)CO)c2n1 [ganciclovir]
[18]; 10 µM, vs infected untreated cells (p = 0.999)
  resolving HCMV inhibition of trophoblast migration: no effect
